Laboratory results: patent US20190315806A1, “POLYMYXIN DERIVATIVE, PREPARATION METHOD AND APPLICATION THEREOF” (priority 2016, published 2019)
Converted amounts (≈) assume the structure as drawn. Where a SMILES comes first, the peptide text is derived from it. Bridges are numbered along the chain shown (N, C = ends). [ ]: non-standard residue; d: D form. The star is where a group is joined. Heptanoyl(6-Me) = CC(C)CCCCC(=O)*; Octanoyl(7-Me) = CC(C)CCCCCC(=O)*; X2 = CC[C@H](C)CCCCC(=O)*; Dab = NCC[C@H](N)C(=O)O; Nva = CCC[C@H](N)C(=O)O

Legend:
Type in all cases: cell-based
[1] = test system: Klebsiella pneumoniae ATCC BAA-2146 (NDM-1); assay: Antibacterial activity, MIC by dish double dilution method
Outline: (§1)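 Read-out was the lowest drug level in agar preventing visible colony growth after 18 to 24 hours at 35° C. Plates held twofold dilutions (0.03–128 μg/mL final), prepared following CLSI. Bacteria were inoculated at 10^4 CFU/dot with a multipoint inoculator.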

[2] = test system: Staphylococcus epidermidis ATCC 12228; conditions: ATCC 12228
Outline: as §1

[3] = test system: Escherichia coli ATCC 25922; conditions: ATCC 25922
Outline: as §1

[4] = test system: Acinetobacter baumannii ATCC 19606; conditions: ATCC 19606
Outline: as §1

[5] = test system: Pseudomonas aeruginosa ATCC 27853; conditions: ATCC 27853
Outline: as §1

[6] = Nephrotoxicity test, renal cytotoxicity by MTT method; conditions: African green monkey
Procedure: African green monkey kidney cells (Vero cells) were cultured in MEM medium (Hyclone), 10% fetal calf serum (Invitrogen) was added before use, cultured at 37° C. under 5% CO2.
Experiment was carried out using MTT method. After digestion, cells in logarithmic growth phase were counted, then the cells were inoculated in a 96-well culture plate. After incubation for 24 h to be adherent, cells were treated with a concentration gradient of a compound of the invention (e.g., a compound prepared in the Embodiments) and the controls. After 72 h, the culture solution was removed, 100 uL of MTT reagent at a concentration of 0.5 mg/ml was added, the medium was removed after incubating for 3 hours in a 37° C. incubator. Add 150 μL DMSO solvent to each well, mix for 3 min, after which the absorbance at 570 nm (A) was measured with a microplate reader.
Cell viability %=(Adosed cell−Abackground)/(Acontrol cell−Abackground)×100%. The average value of 3 parallel wells was taken for each detection point, and the inhibition curve was drawn to calculate the IC50 value.
The African green monkey kidney cells (Vero cells) used in the experiment were from the Cell Resource Center of the Institute of Basic Medicine, Chinese Academy of Medical Sciences.

| Structure (SMILES) | MIC K. pneumoniae ATCC BAA-2146 (NDM-1) ([1]; ATCC BAA-2146) | MIC S. epidermidis ATCC 12228 [2] | MIC E. coli ATCC 25922 [3] | MIC A. baumannii ATCC 19606 [4] | MIC P. aeruginosa ATCC 27853 [5] | IC50 at 72 h [6] | MIC K. pneumoniae ATCC BAA-2146 (NDM-1) ([1]; agar dilution, 10^4 CFU/dot, 18 to 24 hours at 35° C.) |
| --- | --- | --- | --- | --- | --- | --- | --- |
| CC(C)CCCCC(=O)N[C@@H](CCN)C(=O)N[C@H](C(=O)N[C@@H](CCN)C(=O)N[C@H]1CCNC(=O)[C@H]([C@@H](C)O)NC(=O)[C@H](CCN)NC(=O)[C@H](CCN)NC(=O)[C@H](C(C)C)NC(=O)[C@@H](CC(C)C)NC(=O)[C@H](CCN)NC1=O)[C@@H](C)O [Compound 76, 6-methylheptanoyl-Dab-Thr-Dab-ring(4-10)[Dab-Dab-D-Leu-Val-Dab-Dab-Thr]] ({Heptanoyl(6-Me)}-[Dab]T[Dab][Dab][Dab][dL]V[Dab][Dab]T; lactam 4-C) | 0.5 µg/mL (≈ 0.438 µM) | >128 µg/mL | 0.5 µg/mL (≈ 0.438 µM) | 1 µg/mL (≈ 0.876 µM) | 2 µg/mL (≈ 1.75 µM) | 225 ± 17 µg/mL (≈ 197 µM) |  |
| CC(C)CCCCC(=O)N[C@@H](CCN)C(=O)N[C@H](C(=O)N[C@@H](CCN)C(=O)N[C@H]1CCNC(=O)[C@H]([C@@H](C)O)NC(=O)[C@H](CCN)NC(=O)[C@H](CCN)NC(=O)[C@H](CC(C)C)NC(=O)[C@@H](Cc2ccccc2)NC(=O)[C@H](CCN)NC1=O)[C@@H](C)O [Compound 43, 6-methylheptanoyl-Dab-Thr-Dab-ring(4-10)[Dab-Dab-D-Phe-Leu-Dab-Dab-Thr]] ({Heptanoyl(6-Me)}-[Dab]T[Dab][Dab][Dab][dF]L[Dab][Dab]T; lactam 4-C) |  | 64 µg/mL (≈ 53.8 µM) | 0.5 µg/mL (≈ 0.42 µM) | 0.5 µg/mL (≈ 0.42 µM) | 2 µg/mL (≈ 1.68 µM) | 159 ± 14.1 µg/mL (≈ 134 µM) | 1 µg/mL (≈ 0.841 µM) |
| CC[C@H](C)CCCCC(=O)N[C@@H](CCN)C(=O)N[C@H](C(=O)N[C@@H](CCN)C(=O)N[C@H]1CCNC(=O)[C@H]([C@@H](C)O)NC(=O)[C@H](CCN)NC(=O)[C@H](CCN)NC(=O)[C@H](C(C)C)NC(=O)[C@@H](CC(C)C)NC(=O)[C@H](CCN)NC1=O)[C@@H](C)O [Compound 72, (S)-6-methyloctanoyl-Dab-Thr-Dab-ring(4-10)[Dab-Dab-D-Leu-Val-Dab-Dab-Thr]] (X2-[Dab]T[Dab][Dab][Dab][dL]V[Dab][Dab]T; lactam 4-C) | 0.5 µg/mL (≈ 0.433 µM) | 128 µg/mL (≈ 111 µM) | 0.5 µg/mL (≈ 0.433 µM) | 0.5 µg/mL (≈ 0.433 µM) | 2 µg/mL (≈ 1.73 µM) | 131 ± 8.69 µg/mL (≈ 113 µM) |  |
| CC(C)CCCCCC(=O)N[C@@H](CCN)C(=O)N[C@H](C(=O)N[C@@H](CCN)C(=O)N[C@H]1CCNC(=O)[C@H]([C@@H](C)O)NC(=O)[C@H](CCN)NC(=O)[C@H](CCN)NC(=O)[C@H](CC(C)C)NC(=O)[C@@H](CC(C)C)NC(=O)[C@H](CCN)NC1=O)[C@@H](C)O [Compound 86, 7-methyloctanoyl-Dab-Thr-Dab-ring(4-10)[Dab-Dab-D-Leu-Leu-Dab-Dab-Thr]] ({Octanoyl(7-Me)}-[Dab]T[Dab][Dab][Dab][dL]L[Dab][Dab]T; lactam 4-C) | 1 µg/mL (≈ 0.855 µM) | 64 µg/mL (≈ 54.7 µM) | 1 µg/mL (≈ 0.855 µM) | 1 µg/mL (≈ 0.855 µM) | 2 µg/mL (≈ 1.71 µM) | 87 ± 6.98 µg/mL (≈ 74.4 µM) |  |
| CC(C)CCCCC(=O)N[C@@H](CCN)C(=O)N[C@H](C(=O)N[C@@H](CCN)C(=O)N[C@H]1CCNC(=O)[C@H]([C@@H](C)O)NC(=O)[C@H](CCN)NC(=O)[C@H](CCN)NC(=O)[C@H]([C@@H](C)O)NC(=O)[C@@H](CC(C)C)NC(=O)[C@H](CCN)NC1=O)[C@@H](C)O [Compound 103, 6-methylheptanoyl-Dab-Thr-Dab-ring(4-10)[Dab-Dab-D-Leu-Thr-Dab-Dab-Thr]] ({Heptanoyl(6-Me)}-[Dab]T[Dab][Dab][Dab][dL]T[Dab][Dab]T; lactam 4-C) | 0.5 µg/mL (≈ 0.437 µM) | >128 µg/mL | 0.5 µg/mL (≈ 0.437 µM) | 1 µg/mL (≈ 0.875 µM) | 0.5 µg/mL (≈ 0.437 µM) | 276 ± 17.7 µg/mL (≈ 241 µM) |  |
| CC[C@H](C)CCCCC(=O)N[C@@H](CCN)C(=O)N[C@H](C(=O)N[C@H](CO)C(=O)N[C@H]1CCNC(=O)[C@H]([C@@H](C)O)NC(=O)[C@H](CCN)NC(=O)[C@H](CCN)NC(=O)[C@H]([C@@H](C)O)NC(=O)[C@@H](CC(C)C)NC(=O)[C@H](CCN)NC1=O)[C@@H](C)O [Compound 58, (S)-6-methyloctanoyl-Dab-Thr-D-Ser-ring(4-10)[Dab-Dab-D-Leu-Thr-Dab-Dab-Thr]] (X2-[Dab]T[dS][Dab][Dab][dL]T[Dab][Dab]T; lactam 4-C) | 0.5 µg/mL (≈ 0.437 µM) | >128 µg/mL | 0.12 µg/mL (≈ 0.105 µM) | 0.06 µg/mL (≈ 0.0524 µM) | 2 µg/mL (≈ 1.75 µM) | 189 ± 11.3 µg/mL (≈ 165 µM) |  |
| CC[C@H](C)CCCCC(=O)N[C@@H](CCN)C(=O)N[C@H](C(=O)N[C@@H](CCN)C(=O)N[C@H]1CCNC(=O)[C@H]([C@@H](C)O)NC(=O)[C@H](CCN)NC(=O)[C@H](CCN)NC(=O)[C@H]([C@@H](C)CC)NC(=O)[C@@H](Cc2ccccc2)NC(=O)[C@H](CCN)NC1=O)[C@@H](C)O [Compound 47, (S)-6-methyloctanoyl-Dab-Thr-Dab-ring(4-10)[Dab-Dab-D-Phe-Ile-Dab-Dab-Thr]] (X2-[Dab]T[Dab][Dab][Dab][dF]I[Dab][Dab]T; lactam 4-C) | 1 µg/mL (≈ 0.831 µM) | 128 µg/mL (≈ 106 µM) | 1 µg/mL (≈ 0.831 µM) | 1 µg/mL (≈ 0.831 µM) | 2 µg/mL (≈ 1.66 µM) | 74.7 ± 6.13 µg/mL (≈ 62.1 µM) |  |
| CCC[C@@H]1NC(=O)[C@@H](CC(C)C)NC(=O)[C@H](CCN)NC(=O)[C@@H](NC(=O)[C@H](CCN)NC(=O)[C@@H](NC(=O)[C@H](CCN)NC(=O)CCCCC(C)C)[C@@H](C)O)CCNC(=O)[C@H]([C@@H](C)O)NC(=O)[C@H](CCN)NC(=O)[C@H](CCN)NC1=O [Compound 77, 6-methylheptanoyl-Dab-Thr-Dab-ring(4-10)[Dab-Dab-D-Leu-Nva-Dab-Dab-Thr]] ({Heptanoyl(6-Me)}-[Dab]T[Dab][Dab][Dab][dL][Nva][Dab][Dab]T; lactam 4-C) | 0.5 µg/mL (≈ 0.438 µM) | >128 µg/mL | 0.5 µg/mL (≈ 0.438 µM) | 0.5 µg/mL (≈ 0.438 µM) | 1 µg/mL (≈ 0.876 µM) | 168 ± 12.5 µg/mL (≈ 148 µM) |  |
| CC[C@H](C)CCCCC(=O)N[C@@H](CCN)C(=O)N[C@H](C(=O)N[C@@H](CCN)C(=O)N[C@H]1CCNC(=O)[C@H]([C@@H](C)O)NC(=O)[C@H](CCN)NC(=O)[C@H](CCN)NC(=O)[C@H]([C@@H](C)CC)NC(=O)[C@@H](CC(C)C)NC(=O)[C@H](CCN)NC1=O)[C@@H](C)O [Compound 71, (S)-6-methyloctanoyl-Dab-Thr-Dab-ring(4-10)[Dab-Dab-D-Leu-Ile-Dab-Dab-Thr]] (X2-[Dab]T[Dab][Dab][Dab][dL]I[Dab][Dab]T; lactam 4-C) | 1 µg/mL (≈ 0.855 µM) | 128 µg/mL (≈ 109 µM) | 1 µg/mL (≈ 0.855 µM) | 1 µg/mL (≈ 0.855 µM) | 2 µg/mL (≈ 1.71 µM) | 176 ± 14.7 µg/mL (≈ 151 µM) |  |
| CC(C)CCCCC(=O)N[C@@H](CCN)C(=O)N[C@H](C(=O)N[C@@H](CCN)C(=O)N[C@H]1CCNC(=O)[C@H](CC(C)C)NC(=O)[C@H](CCN)NC(=O)[C@H](CCN)NC(=O)[C@H](CC(C)C)NC(=O)[C@@H](Cc2ccccc2)NC(=O)[C@H](CCN)NC1=O)[C@@H](C)O [Compound 128, 6-methylheptanoyl-Dab-Thr-Dab-ring(4-10)[Dab-Dab-D-Phe-Lue-Dab-Dab-Lue]] ({Heptanoyl(6-Me)}-[Dab]T[Dab][Dab][Dab][dF]L[Dab][Dab]L; lactam 4-C) | 4 µg/mL (≈ 3.33 µM) | 16 µg/mL (≈ 13.3 µM) | 4 µg/mL (≈ 3.33 µM) | 4 µg/mL (≈ 3.33 µM) | 4 µg/mL (≈ 3.33 µM) | 30.1 ± 2.59 µg/mL (≈ 25 µM) |  |
